Experimental data taken from PubChem BioAssay (NCI).
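Briefly, cells in 96-well plates were exposed to five compound concentrations for 48 h, and endpoints were estimated by linear interpolation. TGI is the concentration that stops growth completely.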

Assays:
Assay in all cases: inhibition of tumour cell growth, NCI panel, 48 h
786-0 renal = test system: 786-0 renal
A498 renal = test system: A498 renal
A549 NSCLC = test system: A549 NSCLC
ACHN renal = test system: ACHN renal
CCRF-CEM leukemia = test system: CCRF-CEM leukemia
COLO 205 colon = test system: COLO 205 colon
DLD-1 colon = test system: DLD-1 colon
DMS 114 small cell lung = test system: DMS 114 small cell lung
DMS 273 small cell lung = test system: DMS 273 small cell lung
EKVX NSCLC = test system: EKVX NSCLC
HCC-2998 colon = test system: HCC-2998 colon
HCT-116 colon = test system: HCT-116 colon
HCT-15 colon = test system: HCT-15 colon
HL-60(TB) leukemia = test system: HL-60(TB) leukemia
HOP-18 NSCLC = test system: HOP-18 NSCLC
HOP-62 NSCLC = test system: HOP-62 NSCLC
HT29 colon = test system: HT29 colon
IGROV1 ovarian = test system: IGROV1 ovarian
K-562 leukemia = test system: K-562 leukemia
KM12 colon = test system: KM12 colon
KM20L2 colon = test system: KM20L2 colon
LOX IMVI melanoma = test system: LOX IMVI melanoma
LXFL 529 NSCLC = test system: LXFL 529 NSCLC
M14 melanoma = test system: M14 melanoma
M19-MEL melanoma = test system: M19-MEL melanoma
MALME-3M melanoma = test system: MALME-3M melanoma
MOLT-4 leukemia = test system: MOLT-4 leukemia
NCI-H23 lung = test system: NCI-H23 lung
NCI-H460 lung = test system: NCI-H460 lung
NCI-H522 lung = test system: NCI-H522 lung
OVCAR-3 ovarian = test system: OVCAR-3 ovarian
OVCAR-4 ovarian = test system: OVCAR-4 ovarian
OVCAR-5 ovarian = test system: OVCAR-5 ovarian
OVCAR-8 ovarian = test system: OVCAR-8 ovarian
RXF 393 renal = test system: RXF 393 renal
SF-268 CNS = test system: SF-268 CNS
SF-295 CNS = test system: SF-295 CNS
SF-539 CNS = test system: SF-539 CNS
SK-MEL-2 melanoma = test system: SK-MEL-2 melanoma
SK-MEL-28 melanoma = test system: SK-MEL-28 melanoma
SK-MEL-5 melanoma = test system: SK-MEL-5 melanoma
SK-OV-3 ovarian = test system: SK-OV-3 ovarian
SN12C renal = test system: SN12C renal
SNB-19 CNS = test system: SNB-19 CNS
SNB-75 CNS = test system: SNB-75 CNS
SNB-78 CNS = test system: SNB-78 CNS
SW-620 colon = test system: SW-620 colon
TK-10 renal = test system: TK-10 renal
U251 CNS = test system: U251 CNS
UACC-257 melanoma = test system: UACC-257 melanoma
UACC-62 melanoma = test system: UACC-62 melanoma
UO-31 renal = test system: UO-31 renal
XF 498 CNS = test system: XF 498 CNS
BT-549 breast = test system: BT-549 breast
CAKI-1 renal = test system: CAKI-1 renal
DU-145 prostate = test system: DU-145 prostate
HOP-92 NSCLC = test system: HOP-92 NSCLC
HS 578T breast = test system: HS 578T breast
MCF7 breast = test system: MCF7 breast
MDA-MB-231 breast = test system: MDA-MB-231 breast
MDA-MB-435 = test system: MDA-MB-435
MDA-N = test system: MDA-N
NCI-H226 lung = test system: NCI-H226 lung
NCI/ADR-RES ovarian = test system: NCI/ADR-RES ovarian
PC-3 prostate = test system: PC-3 prostate
RPMI-8226 leukemia = test system: RPMI-8226 leukemia
RXF-631 renal = test system: RXF-631 renal
SR leukemia = test system: SR leukemia
T-47D breast = test system: T-47D breast

COc1cc(OC)c(SSCCCCS(=O)O)c(OC)c1
TGI (786-0 renal): 35.4 µM | TGI (A498 renal): 33.6 µM | TGI (A549 NSCLC): 40.3 µM | TGI (ACHN renal): 31.8 µM | TGI (CCRF-CEM leukemia): 42.9 µM | TGI (COLO 205 colon): 35.7 µM | TGI (DLD-1 colon): 41.1 µM | TGI (DMS 114 small cell lung): 39 µM | TGI (DMS 273 small cell lung): 34.8 µM | TGI (EKVX NSCLC): 31.3 µM | TGI (HCC-2998 colon): 42.4 µM | TGI (HCT-116 colon): 29.9 µM | TGI (HCT-15 colon): 34.2 µM | TGI (HL-60(TB) leukemia): 24.8 µM | TGI (HOP-18 NSCLC): 45.8 µM | TGI (HOP-62 NSCLC): 67 µM | TGI (HT29 colon): 32.9 µM | TGI (IGROV1 ovarian): 57.8 µM | TGI (K-562 leukemia): 89.3 µM | TGI (KM12 colon): 29.4 µM | TGI (KM20L2 colon): 37.9 µM | TGI (LOX IMVI melanoma): 29 µM | TGI (LXFL 529 NSCLC): 25.2 µM | TGI (M14 melanoma): 27.5 µM | TGI (M19-MEL melanoma): 22.9 µM | TGI (MALME-3M melanoma): 31 µM | TGI (MOLT-4 leukemia): 26.8 µM | TGI (NCI-H23 lung): 30.5 µM | TGI (NCI-H460 lung): 38.1 µM | TGI (NCI-H522 lung): 21.1 µM | TGI (OVCAR-3 ovarian): 28.6 µM | TGI (OVCAR-4 ovarian): > 100 µM | TGI (OVCAR-5 ovarian): 30.5 µM | TGI (OVCAR-8 ovarian): 34.1 µM | TGI (RXF 393 renal): 27.6 µM | TGI (SF-268 CNS): 44 µM | TGI (SF-295 CNS): 26.8 µM | TGI (SF-539 CNS): 29.5 µM | TGI (SK-MEL-2 melanoma): 54.6 µM | TGI (SK-MEL-28 melanoma): 29.7 µM | TGI (SK-MEL-5 melanoma): 22.3 µM | TGI (SK-OV-3 ovarian): 38.6 µM | TGI (SN12C renal): 33.6 µM | TGI (SNB-19 CNS): 34.1 µM | TGI (SNB-75 CNS): 25.4 µM | TGI (SNB-78 CNS): 29.4 µM | TGI (SW-620 colon): 28.4 µM | TGI (TK-10 renal): 42.9 µM | TGI (U251 CNS): 27.9 µM | TGI (UACC-257 melanoma): 23.5 µM | TGI (UACC-62 melanoma): 27.9 µM | TGI (UO-31 renal): 40.6 µM | TGI (XF 498 CNS): 27.6 µM

CCCCCCCCCCCCCCCCCCN(C)C(COC)COP(=O)([O-])OCC[N+](C)(C)C (stereo unspecified)
TGI (786-0 renal): 3.56 µM | TGI (A498 renal): 34.1 µM | TGI (A549 NSCLC): 21.1 µM | TGI (ACHN renal): 26.9 µM | TGI (BT-549 breast): 26 µM | TGI (CAKI-1 renal): 15.7 µM | TGI (CCRF-CEM leukemia): 7.41 µM | TGI (COLO 205 colon): 3.22 µM | TGI (DLD-1 colon): 13.8 µM | TGI (DMS 273 small cell lung): 2.92 µM | TGI (DU-145 prostate): 24.5 µM | TGI (EKVX NSCLC): 34.2 µM | TGI (HCC-2998 colon): 3.46 µM | TGI (HCT-116 colon): 17 µM | TGI (HL-60(TB) leukemia): 4.34 µM | TGI (HOP-18 NSCLC): 17 µM | TGI (HOP-62 NSCLC): 12.1 µM | TGI (HOP-92 NSCLC): 5.17 µM | TGI (HS 578T breast): 22.5 µM | TGI (HT29 colon): 9.44 µM | TGI (IGROV1 ovarian): 3.27 µM | TGI (K-562 leukemia): 31.3 µM | TGI (KM12 colon): 3.2 µM | TGI (KM20L2 colon): 6.92 µM | TGI (LOX IMVI melanoma): 18.8 µM | TGI (LXFL 529 NSCLC): 15.4 µM | TGI (M14 melanoma): 13.7 µM | TGI (M19-MEL melanoma): 12.9 µM | TGI (MALME-3M melanoma): 29.5 µM | TGI (MCF7 breast): 23.7 µM | TGI (MDA-MB-231 breast): 19.6 µM | TGI (MDA-MB-435): 33.9 µM | TGI (MDA-N): 31.1 µM | TGI (MOLT-4 leukemia): 4.28 µM | TGI (NCI-H226 lung): 12.1 µM | TGI (NCI-H23 lung): 23.9 µM | TGI (NCI-H460 lung): 4.38 µM | TGI (NCI-H522 lung): 10.7 µM | TGI (NCI/ADR-RES ovarian): > 58.3 µM | TGI (OVCAR-3 ovarian): 22.4 µM | TGI (OVCAR-4 ovarian): 12.3 µM | TGI (OVCAR-5 ovarian): 6.32 µM | TGI (OVCAR-8 ovarian): 26.3 µM | TGI (PC-3 prostate): 3.32 µM | TGI (RPMI-8226 leukemia): 5.85 µM | TGI (RXF 393 renal): 3.12 µM | TGI (RXF-631 renal): 26 µM | TGI (SF-268 CNS): 12.5 µM | TGI (SF-295 CNS): 10.3 µM | TGI (SF-539 CNS): 19 µM | TGI (SK-MEL-2 melanoma): 35.6 µM | TGI (SK-MEL-28 melanoma): 36.7 µM | TGI (SK-MEL-5 melanoma): 29.9 µM | TGI (SK-OV-3 ovarian): 25.8 µM | TGI (SN12C renal): 19.5 µM | TGI (SNB-19 CNS): 14.1 µM | TGI (SNB-75 CNS): 8.3 µM | TGI (SNB-78 CNS): 18.3 µM | TGI (SR leukemia): 22.9 µM | TGI (SW-620 colon): 21.2 µM | TGI (T-47D breast): 34.1 µM | TGI (TK-10 renal): 4.43 µM | TGI (U251 CNS): 4.2 µM | TGI (UACC-257 melanoma): 29.5 µM | TGI (UACC-62 melanoma): 19.2 µM | TGI (UO-31 renal): 31.4 µM | TGI (XF 498 CNS): 39.8 µM

COc1ccc(N2C(=O)[C@H]3[C@H]4CC(C(C)(C)C)CC[C@H]4c4c(n(C)c5ccccc45)[C@H]3C2=O)cc1 (stereo partly specified)
TGI (786-0 renal): > 100 µM | TGI (A498 renal): > 46.4 µM | TGI (A549 NSCLC): > 100 µM | TGI (ACHN renal): > 100 µM | TGI (BT-549 breast): > 100 µM | TGI (CAKI-1 renal): > 100 µM | TGI (CCRF-CEM leukemia): > 100 µM | TGI (COLO 205 colon): > 100 µM | TGI (DLD-1 colon): > 100 µM | TGI (DMS 114 small cell lung): > 100 µM | TGI (DMS 273 small cell lung): > 100 µM | TGI (DU-145 prostate): > 100 µM | TGI (EKVX NSCLC): > 46.4 µM | TGI (HCC-2998 colon): > 56.2 µM | TGI (HCT-116 colon): > 100 µM | TGI (HCT-15 colon): > 56.2 µM | TGI (HL-60(TB) leukemia): > 100 µM | TGI (HOP-18 NSCLC): > 100 µM | TGI (HOP-62 NSCLC): > 5.62 µM | TGI (HOP-92 NSCLC): > 100 µM | TGI (HS 578T breast): > 86 µM | TGI (HT29 colon): > 100 µM | TGI (IGROV1 ovarian): > 100 µM | TGI (K-562 leukemia): > 100 µM | TGI (KM12 colon): > 61.3 µM | TGI (LOX IMVI melanoma): > 100 µM | TGI (LXFL 529 NSCLC): > 100 µM | TGI (M14 melanoma): > 100 µM | TGI (M19-MEL melanoma): > 100 µM | TGI (MALME-3M melanoma): > 100 µM | TGI (MCF7 breast): > 46.4 µM | TGI (MDA-MB-231 breast): > 100 µM | TGI (MDA-MB-435): > 100 µM | TGI (MDA-N): > 100 µM | TGI (MOLT-4 leukemia): > 100 µM | TGI (NCI-H226 lung): > 100 µM | TGI (NCI-H23 lung): > 100 µM | TGI (NCI-H460 lung): > 63.8 µM | TGI (NCI-H522 lung): > 82.4 µM | TGI (NCI/ADR-RES ovarian): > 100 µM | TGI (OVCAR-3 ovarian): > 100 µM | TGI (OVCAR-4 ovarian): > 100 µM | TGI (OVCAR-5 ovarian): > 100 µM | TGI (OVCAR-8 ovarian): > 100 µM | TGI (PC-3 prostate): > 100 µM | TGI (RPMI-8226 leukemia): > 100 µM | TGI (RXF 393 renal): > 100 µM | TGI (SF-268 CNS): > 100 µM | TGI (SF-295 CNS): > 100 µM | TGI (SF-539 CNS): > 46.4 µM | TGI (SK-MEL-2 melanoma): > 100 µM | TGI (SK-MEL-28 melanoma): > 100 µM | TGI (SK-MEL-5 melanoma): > 100 µM | TGI (SK-OV-3 ovarian): > 100 µM | TGI (SN12C renal): > 56.2 µM | TGI (SNB-19 CNS): > 100 µM | TGI (SNB-75 CNS): > 100 µM | TGI (SR leukemia): > 100 µM | TGI (SW-620 colon): > 100 µM | TGI (T-47D breast): > 100 µM | TGI (TK-10 renal): > 100 µM | TGI (U251 CNS): > 56.2 µM | TGI (UACC-257 melanoma): > 100 µM | TGI (UACC-62 melanoma): > 100 µM | TGI (UO-31 renal): > 100 µM | TGI (XF 498 CNS): > 100 µM
